Assay [1] concerns HIV-1IIIB. Nature of the assay: Inhibition of HIV-1 infection of Sup-T1 cells. In kind it is cell-based. The method, then: (§1) Inhibition of in vitro HIV infection of human lymphocyte cells:
(§2) Peptides: Peptides (either peptides derived from natural casein or synthetic peptides derived from casein (1-25 amino acids in length, see table 3) supplied as lyophilized powder were resuspended in RPMI complete medium and added to cell cultures at a final concentrations of 50 to 1000 μg per ml.
Cells: Several types of freshly isolated human cells (primary cells) and cell lines are known to be susceptible to in vitro HIV-1 infection, although essentially any cell displaying even low surface levels of the CD4 molecule can be considered a potential target for HIV-1 infection. Two commonly used human cell lines which are highly sensitive for HIV-1 infection were chosen, CEM and Sup-T1. […]
HIV-1 P24 antigen capture assay: An HIV-1 P24 Antigen capture assay kit employed was designed to quantitate the HIV-1 P24 core antigen, which is proportionally related to the degree of viral production in cells. […] The HIV-1 P24 antigen capture assay was analyzed by Organon-Technica ELISA reader at 450 nm with a reference at 650 nm.
HIV-1 P24 antigen capture ELISA: HIV infection was measured with an indirect enzyme immunoassay which detects HIV-1 P24 core antigens in tissue culture media. […]

For assay [2], the system named is Non-Obese Diabetic (NOD) mice. Nature of the assay: Prevention of glucosuria / Juvenile (Type I, IDDM) Diabetes in NOD mice. Type of assay: in vivo, mouse. The conditions noted are these: for prevention of glucosuria (in words) / Healthy/Total* (healthy and well = sugar not detected in urine): 100 μg once weekly for 5 weeks, evaluated after 25 weeks; for Healthy/Total* (healthy and well = sugar not detected in urine): female NOD mice. The method, then:
Juvenile (Type I, IDDM) Diabetes in Non-Obese Diabetic (NOD) Mice:
Peptides Derived from Natural Casein:
NOD mice are a commonly used model for research of autoimmune disease and human Juvenile Diabetes. Six week old female NOD mice received either one or two injections per week of 100 μg of peptides derived from natural casein, for a total of 5 or 11 treatments. Control mice received no treatment. The severity of disease was determined according to glucosuria, which was measured using Combi test sticks [Gross, D. J. et al. (1994), Diabetology, 37:1195]. Results were expressed as the percent of glucosuria-free mice in each sample over a 365-day period.
Synthetic Peptides Derived from Casein:
In another experiment, 6 week old female NOD mice received one injection per week of 100 μg of Synthetic peptides derived from casein for a total of 5 treatments. Control mice received no treatment. Results were expressed as the number of healthy mice in the various treated groups.

Assay [3] relates to Non-Obese Diabetic (NOD) mice. In words: Intraperitoneal Glucose Tolerance Test (IPGTT) in NOD mice. Also on record: IPGT TEST 0 min. (pre-load), plasma glucose: unit not given here. The conditions noted are these: for IPGT test result (in words): healthy NOD mice after 25 weeks; for IPGT TEST 0 min. (pre-load), plasma glucose: individual healthy NOD mice, 25 weeks after peptides. In kind it is in vivo, mouse. The method, then: Intraperitoneal Glucose Tolerance Test (IPGTT):
The glucose tolerance test is the definitive method for investigating glucose metabolism and diabetic tendencies in mammals. Twenty five (25) weeks after receiving Synthetic peptides derived from casein, response to a glucose load was assessed with an intraperitoneal glucose tolerance test. Glucose injection consisted of 1 g/kg body weight. Glycemic values were determined from blood drawn prior to test (0 minutes) and 60 minutes after loading.

In assay [4] the test system is murine primary bone marrow cells. Nature of the assay: Multipotential colonies (CFU-GEMM) from murine bone marrow cells, colony and differential counts. In kind it is cell-based, mouse. The conditions noted are these: for megakaryocyte formation and development: 8 days treatment. The method, then: Stimulation of Hematopoiesis from Bone Marrow (BM) Cells in Culture:
Proliferation of megakaryocytes in multipotential colonies (CFU-GEMM) from murine Bone Marrow cells: Primary bone marrow cells (1×10^5 per ml) from 8-12 week-old C3H/HeJ mice were grown in serum-free methyl cellulose-IMDM medium for 8-9 days at 5% CO2, 95% air, at 37° C. The medium, appropriate for the growth of multipotential colonies (CFU-GEMM), contained 1% BSA (Sigma), 10^−4 M thioglycerol (Sigma), 2.8×10^−4 M human transferrin (TF, Biological industries, Israel), 10% WEHI-CM as a source of IL-3 and 2 units per ml erythropoietin (rhEPO, R & D Systems, Minneapolis). Colonies were scored after 8-9 days using an Olympus dark field microscope. They were picked with a micropipette, cytocentrifuged and stained with May-Grunwald-Giemsa for differential counts. At least 700 cells were counted for each preparation. […]
Proliferation of Macrophage cells in CFU-GEMM: Multipotent (CFU-GEMM colonies grown from primary bone marrow cells as described for the assay of megakaryocyte proliferation above were collected, stained and counted for macrophage cells. At least 700 cells were counted for each preparation.
Proliferation of Red Blood Cells in CFU-GEMM: Multipotent (CFU-GEMM) colonies grown from primary bone marrow cells as described for the assay of megakaryocyte proliferation above were collected, stained and counted for red blood cells. At least 700 cells were counted for each preparation. […]

In assay [5] the test system is HIV-1IIIB. In words: Inhibition of HIV-1 infection of CEM lymphocytes (cell counts, P24 antigen assay). The note with it: for cell counts / resistance of CEM cells to HIV-1 infection (in words) / lymphocyte cell numbers: 3 hours pretreatment; for cell counts / lymphocyte cell numbers: infected control 1.06×10^6; for HIV-1 infection level, P24 antigen: 7 days post infection. In kind it is cell-based. The method, then: as §1, §2
Cells: Several types of freshly isolated human cells (primary cells) and cell lines are known to be susceptible to in vitro HIV-1 infection, although essentially any cell displaying even low surface levels of the CD4 molecule can be considered a potential target for HIV-1 infection. Two commonly used human cell lines which are highly sensitive for HIV-1 infection were chosen, CEM and Sup-T1.
CEM is a human T4-lymphoblastoid cell line initially derived by G. E. Foley et al. [(1965), Cancer 18:522] from peripheral blood buffy coat of a person with acute lymphoblastic leukemia. These cells were continuously maintained in suspension in medium, and have been used widely for analysis of infectivity, antiviral agents and neutralizing antibodies.
Virus: The HIV virus strain employed was HIV-1IIIB, originally designated HTLV-IIIB. Concentrated culture fluids of peripheral blood from several patients with AIDS or related diseases were used to establish a permanent productive infection in H-9 cells. This subtype B virus has high capacity to replicate in human T-cell lines. Viral titer was 5.38 ng per ml in stock solution.
HIV-1 P24 antigen capture assay: An HIV-1 P24 Antigen capture assay kit employed was designed to quantitate the HIV-1 P24 core antigen, which is proportionally related to the degree of viral production in cells. This kit was purchased from the AIDS Vaccine program of the SAIC-NCI-Frederick Cancer Research Institute, P.O. Box B, Frederick, Md. 21702, USA and included 96 well plates coated with monoclonal antibody to HIV-1 P24, primary antibody-rabbit anti-HIV P24 serum, secondary antibody-Goat anti-rabbit-IgG (H+ L) peroxidase conjugated antibody, TMB peroxidase substrate system and lysed HIV-1 P24 standard. The HIV-1 P24 antigen capture assay was analyzed by Organon-Technica ELISA reader at 450 nm with a reference at 650 nm.
HIV-1 P24 antigen capture ELISA: HIV infection was measured with an indirect enzyme immunoassay which detects HIV-1 P24 core antigens in tissue culture media. Tissue culture supernatant was reacted with primary rabbit anti-HIV-1 P24 antigen and visualized by peroxidase conjugated goat anti rabbit IgG. The reaction was terminated by adding 4N H2SO4, wherein the intensity of the color developed is proportional to the amount of HIV-1 antigen present in the tissue culture supernatant.
HIV infection of human cultured CD4+ cells: The cells (CEM, Sup-T1) were preincubated with several increasing concentrations of peptides derived from natural casein (50-1000 μg per ml) or synthetic peptides derived from casein (10-500 μg per ml) for 3, 24 (for synthetic and natural peptides) and 48 (only for natural peptides) hours and HIV-1IIIB (45 μg per ml final concentration) was added to each well thereafter. HIV-1IIIB was preincubated with the peptides for 3 hours and then added to cells (5000 cells/well) in tissue culture plates. Controls were IF (Infected, cells cultured with HIV-1 and without peptides), UIF (Uninfected, cells cultured without HIV-1 and without peptides) and UIF+Ch (Uninfected+peptides derived from natural casein, cells cultured in the presence of peptides derived from natural casein {50-1000 μg per ml}) to test the effect of peptides derived from natural casein and synthetic peptides derived from casein on cell viability and growth. Cells were counted for viability and proliferation rate on day 7, 10 and day 14 post infection (the day of P24 antigen culture supernatant harvest). Cells and tissue culture supernatants (media) were harvested and lysed immediately in 1/10 volume of 10% Triton X-100. […]

The test system of assay [6] is female C57B1/6j mice fed an atherogenic diet. In words: Diet-induced hypercholesterol/hyperlipidemia in C57B1/6j mice. In kind it is in vivo. The note with it: one week post 1 mg per mouse i.p.; diet control 52. As for the experimental part: The ability of synthetic casein derived peptides to reduce cholesterol levels in 7-week old female C57B1/6j mice was assessed after feeding an atherogenic diet. The mice were divided into groups of 8. One control group was fed a normal diet. A second control group was fed the modified Thomas Hartroft diet containing cholate (#TD 88051: Teklad, Madison, Wis.) [Gerber, D. W. et al. (2000), Journal of Lipid Research. 42, 2001]. The remaining experimental groups were all fed the modified Thomas Hartroft diet.
Cholesterol blood levels were determined according to Roche Cholesterol Assay based on Roeschlou & Allin enzymatic method (Roche, Inc., Germany).

For assay [7], the system named is human bone marrow cells. In words: Colony assays of human bone marrow cells (CFU-GM, erythroid, megakaryocyte, CFU-GEMM). The conditions noted are these: TPO-treated cells without peptides. In kind it is cell-based.
Description: Proliferation of megakaryocyte- and erythroid forming cells from human bone marrow and cord blood cells: A sample of bone marrow from an apparently healthy human being was processed by density gradient separation using Histopaque-107 (Sigma Diagnostics) to obtain a purified population of mononuclear cells (MNC). […]
Colony assay medium containing 10^5 MNC per ml was plated in triplicate wells within a 24 well tissue culture plate (Greiner), 0.33 ml per well. […] Plates were scored after 14 days for colonies containing more than 50 cells. […]
Megakaryocytopoiesis was measured in normal bone marrow cells from healthy consenting human donors by either scoring of the number of megakaryocytes in samples of liquid culture (RPMI-1640 plus 10% human AB serum, glutamine and antibiotics) with or without 100 μg per ml peptides derived from natural casein, or in a methylcellulose assay for assessing colony formation. […] In the methylcellulose assay megakaryocytes were counted with an inverted microscope on days 12-14 after seeding.
In assay [8] the test system is human Peripheral Blood Stem Cells (PBSC). In words: Natural Killer (NK) cell activity in cultured human PBSC (lysis of K562 target cells). In kind it is cell-based. As for the experimental part: Stimulation of Proliferation of Natural Killer (NK) Cells:
From human Peripheral Blood Stem Cells (PBSC): PBSC of G-CSF treated subjects were separated on a FICOLL gradient, washed twice with RPMI-1640 medium and seeded into 1.5 ml wells with or without peptides derived from natural casein or synthetic peptides derived from casein, as indicated, (0-500 μg per ml). Following two days incubation the cells were assayed for Natural Killer activity by measuring radioactivity released from ^35S-labeled K562 target cells (NEG-7Q9A, 185.00 MBq, 2.00 mCi EASYTAGth Methionine, L-[^35S] 43.48 TBq per mmol, 1175.0 Ci per mmol, 0.488 ml, Boston USA). Two concentrations of effector cells ([…] cells per well) were incubated with 5×10^3 target cells per well (effector:target cell ratios of 50:1 and 100:1, respectively) in U-bottomed 96 well tissue culture plates. The cells were incubated for 5 hours at 37° C. in 5% CO2, 95% air and precipitated by 5 minutes centrifugation at 1000 rpm. ^35S release was measured in 50 μl samples of the supernatant liquid.

RPKHPIKHQ [X]: in assay [1] (250 μg), the “increase in lymphocyte cell number in infected cells” value is 80%. Moreover, in assay [1] (500 μg per ml), the “increase in lymphocyte cell number in infected cells” value was 33%. Further, in assay [2], the “prevention of glucosuria (in words)” value is “highly effective”; the “Healthy/Total* (healthy and well = sugar not detected in urine)” value is listed as 3/5. Further, in assay [3], the “IPGT test result (in words)” value is recorded as “no evidence of abnormal glucose metabolism” and the “IPGT TEST 0 min. (pre-load), plasma glucose” value is 94. Further, the “macrophages, % of total cell count” value in assay [4] (approximately 17% in unincubated controls) is about 30%.
For the substance RPKHP [3P], the cell counts in assay [5] (10 μg per ml) is 1.17 ×10^6; in assay [5] (25 μg per ml), 1.26 ×10^6. Also, the “HIV-1 infection level, P24 antigen” value in assay [5] (10 μg per ml, control 0.52) turned out to be 0.26 ng P24 Ag per ml; in assay [5] (25 μg per ml, control 0.52), 0.18 ng P24 Ag per ml. Moreover, the “resistance of CEM cells to HIV-1 infection (in words)” value in assay [5] was “significant inhibition of HIV-1 infection”. The HDL in assay [6] turned out to be 41 mg/dL. In assay [4], the “megakaryocyte formation and development” value is “significant increase”.
Consider RPKHPIKHQGL [2a], for which the HDL in assay [6] turned out to be 40 mg/dL. In addition, in assay [2], the “prevention of glucosuria (in words)” value is listed as “highly effective”; the “Healthy/Total* (healthy and well = sugar not detected in urine)” value is on record as 4/5. In assay [3], the “IPGT test result (in words)” value is on record as “The other two mice remained within normal glycemic range” and the “IPGT TEST 0 min. (pre-load), plasma glucose” value is on record as 95. Besides, in assay [4], the “megakaryocyte formation and development” value was “significant increase”.
On to “TPO: thrombopoietin, hematopoietic growth factor that stimulates megakaryocyte colony formation”, for which the “megakaryocyte (MK) colonies” value in assay [7] amounted to 16 colonies per 2×10^5 cells.
For RPK [1P], the lymphocyte cell numbers in assay [5] (100 μg per ml) is on record as 1.29 ×10^6; in assay [5] (500 μg per ml) it was 2.01 ×10^6. The “HIV-1 infection level, P24 antigen” value was determined as 0.17 ng P24 Antigen/ml in assay [5] (100 μg/ml, untreated control 0.52) and 0.14 ng P24 Antigen/ml in assay [5] (500 μg/ml, untreated control 0.52). Moreover, in assay [5], the “resistance of CEM cells to HIV-1 infection (in words)” value was “significant degree of resistance to infection”. Besides, in assay [8], the “effect on NK activity in PBSC cultures from healthy human donors” value is “No significant effect”. The “patients (of 5 tested) responding” value in assay [8] (25 μg/ml peptide concentration) was determined as 3; in assay [8] (100 μg/ml peptide concentration) it was 1; in assay [8] (250 μg/ml peptide concentration), 1. The onset of glucosuria entry in assay [2] (assayed at week 16, untreated controls 100% glucosuria, data not shown) is recorded as “effectively prevented”.

Source of the values: US7741274B2, “Casein derived peptides and uses thereof in therapy” (priority 2000, dated 2010).
